In experiment [1] the test system is lead-exposed mice. Put plainly: Lead levels of lead-exposed mice. In kind it is in vivo. Conditions: mice fed 1 g/L lead acetate solution; compared with lead model and negative control groups, FIG. 3. The text has this:
40 healthy male Kunming mice of 20-25 g are randomly divided into four groups: namely negative control group, lead acetate model group, Lactobacillus plantarum CCFM8661 treatment group, and calcium disodium edetate treatment group as positive control. The mice of negative control group are fed with ordinary drinking water and the mice of remaining three groups are fed with 1 g/L lead acetate solution to obtain the lead exposure models. The mice of Lactobacillus plantarum CCFM8661 treatment group are daily fed with the 2.0×10^9 cfu/mL skim milk suspension prepared in Example 3 of Specifications, and the mice of positive control treatment group are intraperitoneally injected with 5 g/L disodium edetate calcium agent every day. The blood of mice is collected at the end of the experiment, and the liver, stomach and kidney are collected after these mice are sacrificed.
40 healthy male Kunming mice of 20-25 g are taken and randomly divided into four groups: namely negative control group, lead acetate model group, Lactobacillus plantarum CCFM8661 treatment group and calcium disodium edetate treatment group as positive control. […] These organs are processed in accordance with above digestion processes, and then the lead levels can be determined with above atomic absorption spectrophotometry of Example 2.

Experiment [2] concerns lead-exposed mice. Nature of the experiment: Oxidative damage caused by lead exposure (liver GSH and MDA). It is filed as in vivo. The note with it: mice fed 1 g/L lead acetate solution, daily treatment. From the text: 40 healthy male Kunming mice of 20-25 g are taken and randomly divided into four groups: namely negative control group, lead acetate model group, Lactobacillus plantarum CCFM8661 treatment group and calcium disodium edetate (EDTANa2Ca) treatment group as positive control. The mice of negative control group are fed with ordinary drinking water and the mice of remaining three groups are fed with 1 g/L lead acetate solution to obtain the lead exposure models. The mice of Lactobacillus plantarum CCFM8661 treatment group are daily fed with the 2.0×10^9 cfu/mL skim milk suspension prepared in Example 3 of this Specification, and the mice of positive control treatment group are intraperitoneally injected with 5 g/L disodium edetate calcium agent every day. The blood is taken at the end of the experiment, and the livers are taken out after these mice are sacrificed. These organs are processed with the Ellmam method (Ellmam, G. C. Tissue sulfhydryl groups. Archives of biochemistry and biophysics 82(1): 70-77.) and the malondialdehyde (MDA) kit of Nanjing Jiancheng Bioengineering Institute to determine the glutathione (GSH) and MDA levels.

Marks after values point to notes of the source that are not given here.

Turning to `O=C([O-])CN(CCN(CC(=O)[O-])CC(=O)[O-])CC(=O)[O-].[Ca+2].[Na+].[Na+]` [EDTANa2Ca, calcium disodium edetate], in the experiment with lead-exposed mice [1], the “lead levels of mice blood, liver, stomach and kidney” value is given as “higher than that of the negative control group, but lower than that of the lead model control group”. Also, in the experiment on lead-exposed mice [2], the “GSH (liver)” value was 2.15 ± 0.50^c mg/g protein and the “MDA (liver)” value is 0.15 ± 0.03^c nmol/mg protein.
